Measured values as given in ChEMBL document CHEMBL5241090, “A comprehensive overview of β-carbolines and its derivatives as anticancer agents” (Eur J Med Chem, 2021).
Values after ≈ are worked out from the molar mass of the structure shown.

Legend:
Assay type in all cases: functional, cell-based
CNE-2 = assay: Cytotoxicity against human CNE-2 cells incubated for 48 hrs by MTT assay; details: CNE-2, 48 h
A549 [1] = assay: Cytotoxicity against human A549 cells
HCT-116 [2] = assay: Cytotoxicity against human HCT-116 cells
NCI-H1299 = assay: Cytotoxicity against human NCI-H1299 cells
A2780 = assay: Antiproliferative activity against human A2780 cells
SK-OV-3 = assay: Antiproliferative activity against human SK-OV-3 cells
[3] = Cytotoxicity against mouse P388 cells
KB = assay: Cytotoxicity against human Vincristine-resistant KB cells; details: pooled result: one value given for 6 cell lines, strains, targets or settings
MCF7 = assay: Cytotoxicity against human MCF7 cells incubated for 48 hrs by neutral red dye based assay; details: MCF7, 48 h
HCT-116 [4] = assay: Cytotoxicity against human HCT-116 cells incubated for 48 hrs by neutral red dye based assay; details: HCT-116, 48 h
A549 [5] = assay: Cytotoxicity against human A549 cells incubated for 48 hrs by neutral red dye based assay; details: A549, 48 h
L5178Y = assay: Cytotoxicity against mouse L5178Y cells incubated 72 hrs; details: for EC50: time 72 hrs, read-out: ED50 (the source's name)
[6] = test system: Panel NCI-60 (60 carcinoma cell lines); assay: Cytotoxicity against human Panel NCI-60 (60 carcinoma cell lines)
L1210 = assay: Cytotoxicity against mouse L1210 cells
HeLa = assay: Cytotoxicity against human HeLa cells
MDA-MB-231 = assay: Growth inhibition of human MDA-MB-231 cells incubated for 72 hrs by SRB assay; details: MDA-MB-231, 72 h
A549 [7] = assay: Growth inhibition of human A549 cells incubated for 72 hrs by SRB assay; details: A549, 72 h
HT-29 = assay: Growth inhibition of human HT-29 cells incubated for 72 hrs by SRB assay; details: HT-29, 72 h
HL-60 = assay: Cytotoxicity against human HL-60 cells; details: Homo sapiens, HL-60; read-out: IC50

Question: With `COc1c(O)c(=O)n2c3ccccc3c3ccnc1c32` as the compound, how does the IC50 (CNE-2) read?
Answer: 7.96 µg/mL (≈ 29.9 µM)

Question: With `CC(=O)c1nc(C(=O)NCCc2ccc(O)cc2)cc2c1[nH]c1ccccc12` as the compound, how does the IC50 (A549 [1]) read?
Answer: 37.9 µM

Question: And the IC50 (HCT-116 [2])?
Answer: 37.9 µM

Question: And the IC50 (NCI-H1299)?
Answer: 37.9 µM

Question: Which IC50 (A549 [1]) does the source give for `CC(=O)c1nc(C(=O)NCCc2ccccc2)cc2c1[nH]c1ccccc12` here?
Answer: 37.4 µM

Question: What about the IC50 (HCT-116 [2]) of the same compound?
Answer: 37.4 µM

Question: And the IC50 (NCI-H1299)?
Answer: 37.4 µM

Question: Which IC50 (A2780) does the source give for `C=Cc1ncc(OC)c2c1[nH]c1c(OC)cccc12` here?
Answer: 2.02 µg/mL

Question: And the IC50 (SK-OV-3)?
Answer: 11.9 µg/mL

Question: With `C=Cc1ncc(OC)c2c3ccccc3n(OC)c12` as the compound, how does the IC50 (A2780) read?
Answer: 14.8 µM

Question: What about the IC50 (SK-OV-3) of the same compound?
Answer: 66.6 µM

Question: For `O=c1ccc2nccc3c4cccc(O)c4n1c23`, which IC50 (CNE-2) is on record?
Answer: 13.4 µg/mL (≈ 56.9 µM)

Question: Which IC50 [3] does the source give for `N[C@@H]1CSCON2CCc3c([nH]c4cc(Br)ccc34)[C@H]12` here?
Answer: 0.01 µg/mL (≈ 0.0282 µM)

Question: Which IC50 [3] does the source give for `O=c1ccc2nccc3c4ccc(O)cc4n1c23` here?
Answer: 1.5 µg/mL (≈ 6.35 µM)

Question: And the IC50 (KB)?
Answer: 1.5 µg/mL (≈ 6.35 µM)

Question: For `C=Cc1nccc2c1[nH]c1c(O)cccc12`, which IC50 [3] is on record?
Answer: 0.1 µg/mL (≈ 0.476 µM)

Question: With `O=C1NCCc2c1[nH]c1ccccc21` as the compound, how does the IC50 (MCF7) read?
Answer: 8.27 µg/mL (≈ 44.4 µM)

Question: What about the IC50 (HCT-116 [4]) of the same compound?
Answer: 7.45 µg/mL (≈ 40 µM)

Question: And the IC50 (A549 [5])?
Answer: 10.1 µg/mL (≈ 54.3 µM)

Question: Which EC50 (L5178Y) does the source give for `[O-][N+]1=C(C2=C[C@@]3(O)CC/C=C\CCCCN4CC[C@@H]2[C@]2(CC5/C=C\CCCCN5[C@H]23)C4)c2[nH]c3ccccc3c2CC1` (stereo partly specified) here?
Answer: 1.6 µg/mL (≈ 2.82 µM)

Question: Which results are given for `COc1ccc2c3cc[n+]([O-])c4ccc(=O)n(c2c1)c34`?
Answer: IC50 [3]: 3.8 µg/mL (≈ 14.3 µM); IC50 (KB): 3.8 µg/mL (≈ 14.3 µM)

Question: Which IC50 [3] does the source give for `O=c1ccc2c3c(cc[n+]2[O-])c2ccc(O)cc2n13` here?
Answer: 3.5 µg/mL (≈ 13.9 µM)

Question: What about the IC50 (KB) of the same compound?
Answer: 3.5 µg/mL (≈ 13.9 µM)

Question: Which EC50 (L5178Y) does the source give for `[O-][n+]1ccc2c([nH]c3ccccc32)c1C1=C[C@@]2(O)CC/C=C\CCCCN3CC[C@@H]1[C@]1(CC4/C=C\CCCCN4[C@H]12)C3` (stereo partly specified) here?
Answer: 1.6 µg/mL (≈ 2.83 µM)

Question: With `[O-][n+]1ccc2c([nH]c3ccccc32)c1C1=C[C@@]2(O)CC/C=C\CCCCN3CC[C@@H]1[C@]1(CC/C=C\CCCCN[C@H]12)C3` as the compound, how does the EC50 (L5178Y) read?
Answer: 3.2 µg/mL (≈ 5.65 µM)

Question: For `COc1ccc2c3ccnc4ccc(=O)n(c2c1)c43`, which IC50 [3] is on record?
Answer: 1.4 µg/mL (≈ 5.59 µM)

Question: And the IC50 (KB)?
Answer: 1.4 µg/mL (≈ 5.59 µM)

Question: With `Fc1ccc(-c2nc(-c3nc4ccc(Cl)cc4[nH]3)cc3c2[nH]c2ccccc23)cc1` as the compound, how does the IC50 [6] read?
Answer: 0.3 µM

Question: Which IC50 [6] does the source give for `COc1ccc2nc(-c3cc4c([nH]c5ccccc54)c(-c4ccc(F)c(F)c4)n3)[nH]c2c1` here?
Answer: 0.3 µM

Question: With `Cn1c2cnccc2c2c(Br)c(O)ccc21` as the compound, how does the IC50 (L1210) read?
Answer: 2.4 µg/mL (≈ 8.66 µM)

Question: And the IC50 (L5178Y; 72 h)?
Answer: 1.8 µg/mL (≈ 6.5 µM)

Question: For `COc1ccccc1-c1c(-c2ccccc2)ncc2[nH]c3ccccc3c12`, which IC50 (A549 [1]) is on record?
Answer: 8.2 µM

Question: And the IC50 (HeLa)?
Answer: 20.8 µM

Question: With `COc1ccc(-c2nc(-c3nc4ccc(OC)cc4[nH]3)cc3c2[nH]c2ccccc23)cc1` as the compound, how does the IC50 [6] read?
Answer: 0.3 µM

Question: Which IC50 (MDA-MB-231) does the source give for `O=C(O)c1c(-c2c[nH]c3cc(O)ccc23)ncc2[nH]c3ccc(O)cc3c12` here?
Answer: 25 µg/mL (≈ 69.6 µM)

Question: What about the IC50 (A549 [7]) of the same compound?
Answer: 30 µg/mL (≈ 83.5 µM)

Question: And the IC50 (HT-29)?
Answer: 42 µg/mL (≈ 117 µM)

Question: Which IC50 [6] does the source give for `COc1ccc(-c2nc(-c3nc4ccc(F)cc4[nH]3)cc3c2[nH]c2ccccc23)cc1` here?
Answer: 0.3 µM

Question: With `C[n+]1ccc2c3ccccc3n3c2c1CC(=O)C3=O` as the compound, how does the IC50 (CNE-2) read?
Answer: 23.7 µg/mL

Question: With `Nc1nccc(C2=NCCc3c2[nH]c2ccccc32)n1` as the compound, how does the IC50 (MCF7) read?
Answer: 2.81 µg/mL (≈ 10.7 µM)

Question: And the IC50 (HCT-116 [4])?
Answer: 0.59 µg/mL (≈ 2.24 µM)

Question: And the IC50 (A549 [5])?
Answer: 1.92 µg/mL (≈ 7.29 µM)

Question: For `O=C1CCCCN2[C@@H](C1)C[C@]13CN4CCCC/C=C\CC[C@](O)(C=C(c5nccc6c5[nH]c5c(O)cccc56)[C@@H]1CC4)[C@H]23`, which IC50 [3] is on record?
Answer: 5 µg/mL (≈ 8.61 µM)

Question: For `Nc1nccc(-c2nccc3c2[nH]c2c([C@@H]4c5ccccc5N=C5[C@@H](O)CCN54)c(O)ccc23)n1`, which IC50 (HL-60) is on record?
Answer: 39 µM

Question: And the IC50 (A549 [1])?
Answer: 55.7 µM

Question: With `CNC(=O)CCCc1nccc2c1[nH]c1ccccc12` as the compound, how does the IC50 (MCF7) read?
Answer: 3.5 µg/mL (≈ 13.1 µM)

Question: What about the IC50 (HCT-116 [4]) of the same compound?
Answer: 0.67 µg/mL (≈ 2.51 µM)

Question: What about the IC50 (A549 [5]) of the same compound?
Answer: 2.15 µg/mL (≈ 8.04 µM)

Question: With `COc1c(OC)c2nccc3c4cc(O)ccc4n(c1=O)c23` as the compound, how does the IC50 (CNE-2) read?
Answer: 11.6 µg/mL (≈ 39.2 µM)

Question: Which IC50 (HL-60) does the source give for `COc1ccc2c3c([nH]c2c1)[C@]1(NCC3)C(C)=C(C)c2nc3ccccc3c(=O)n21` here?
Answer: 9.4 µM
